Measured values published in ChEMBL document CHEMBL1201862, “PubChem BioAssay data set” (2004).
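Cultured in 96-well plates, cells were exposed to test compound for 48 hours across five concentrations. GI50 is the concentration that inhibits growth by half.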 Activity calls are given as the source filed them. Cut-off read from the data, not from the text of the source: active = GI50 up to about 1.1 µM and inactive = higher.

What was measured:
Assay in all cases: DTP human tumour cell line panel, 48 h
TK-10 = system: TK-10
SK-MEL-2 = system: SK-MEL-2
UACC-62 = system: UACC-62
CCRF-CEM = system: CCRF-CEM
SF-268 = system: SF-268
UO-31 = system: UO-31
NCI-H226 = system: NCI-H226
HCT-15 = system: HCT-15
SK-OV-3 = system: SK-OV-3
OVCAR-8 = system: OVCAR-8
K562 = system: K562
SR = system: SR
OVCAR-3 = system: OVCAR-3
SK-MEL-5 = system: SK-MEL-5
SN12C = system: SN12C
MDA-MB-435 = system: MDA-MB-435
EKVX = system: EKVX
U-251 = system: U-251
MOLT-4 = system: MOLT-4
NCI-H23 = system: NCI-H23

| Compound | GI50 (TK-10) | GI50 (SK-MEL-2) | GI50 (UACC-62) | GI50 (CCRF-CEM) | GI50 (SF-268) | GI50 (UO-31) | GI50 (NCI-H226) | GI50 (HCT-15) | GI50 (SK-OV-3) | GI50 (OVCAR-8) | GI50 (K562) | GI50 (SR) | GI50 (OVCAR-3) | GI50 (SK-MEL-5) | GI50 (SN12C) | GI50 (MDA-MB-435) | GI50 (EKVX) | GI50 (U-251) | GI50 (MOLT-4) | GI50 (NCI-H23) |
| --- | --- | --- | --- | --- | --- | --- | --- | --- | --- | --- | --- | --- | --- | --- | --- | --- | --- | --- | --- | --- |
| CC(=O)O[C@@H]1C(=O)N(c2ccccc2)[C@@H]1c1cc2ccccc2c2ccccc12 | 30.9 µM (inactive) | 14.4 µM (inactive) | 22.8 µM (inactive) | 25.6 µM (inactive) | 44.3 µM (inactive) | 22.2 µM (inactive) | 7.1 µM (inactive) | 33.1 µM | 47.8 µM (inactive) | 24.5 µM (inactive) | 36.6 µM (inactive) | 15.5 µM (inactive) | 23.2 µM (inactive) | 23.2 µM (inactive) | 34.4 µM (inactive) | 16.8 µM (inactive) | 40.6 µM (inactive) | 43.1 µM (inactive) | 12.3 µM (inactive) | 20.2 µM (inactive) |
| Cc1cc(=O)oc2cc(OC(=O)N(CCCl)CCCl)ccc12 | > 100 µM (inactive) | > 100 µM (inactive) | 29.4 µM (inactive) | 90.4 µM (inactive) | > 100 µM (inactive) | > 100 µM (inactive) | > 100 µM (inactive) | 77.6 µM | > 100 µM (inactive) | > 100 µM (inactive) | 68.5 µM (inactive) | 63.2 µM (inactive) | > 100 µM (inactive) | > 100 µM (inactive) | > 100 µM (inactive) | > 100 µM (inactive) | > 100 µM (inactive) | > 100 µM (inactive) | 82.6 µM (inactive) | > 100 µM (inactive) |
| COC(=O)c1c(O)ccc2c1c1cc3ccccc3cc1n2Cc1cc(OC)cc(OC)c1 | > 23.2 µM (inactive) | 1.22 µM (inactive) | 3.13 µM (inactive) | 1.66 µM (inactive) | 2.75 µM (inactive) | 3.17 µM (inactive) | 14.9 µM (inactive) | 1.46 µM | 1.43 µM (inactive) | 6.38 µM (inactive) | 1.96 µM (inactive) | 1.04 µM (active) | 0.339 µM (active) | 1.34 µM (inactive) | 7.85 µM (inactive) | 0.321 µM (active) | 6.3 µM (inactive) | 4.45 µM (inactive) | 21.7 µM (inactive) | 4.53 µM (inactive) |
| C[C@H]1C=C2[C@@H]3CC(C)(C(=O)O)CC[C@]3(C)CC[C@]2(C)[C@]2(C)CC[C@H]3C(C)(C)[C@@H](OC(=O)c4cccc5c(=O)c6ccccc6[nH]c45)CC[C@]3(C)[C@@H]12 (stereo not given in full) | > 100 µM (inactive) | > 100 µM (inactive) | 43.3 µM (inactive) | 38 µM (inactive) | > 100 µM (inactive) | 70 µM (inactive) | 24 µM (inactive) | > 100 µM | > 100 µM (inactive) | 41.7 µM (inactive) | 54.5 µM (inactive) | 66.8 µM (inactive) | > 100 µM (inactive) | 34.4 µM (inactive) | > 100 µM (inactive) | 41.8 µM (inactive) | > 100 µM (inactive) | 81.5 µM (inactive) | > 100 µM (inactive) | 44.3 µM (inactive) |
| O=C(O)C1=NN(c2ccc(S(=O)(=O)O)cc2)C2(C1)SCC(=O)N2c1nc2ccccc2s1 (stereo not given) | > 100 µM (inactive) | > 100 µM (inactive) | > 100 µM (inactive) | > 100 µM (inactive) | > 100 µM (inactive) | > 100 µM (inactive) | 5.3 µM (inactive) | > 100 µM | > 100 µM (inactive) | > 100 µM (inactive) | > 100 µM (inactive) | > 100 µM (inactive) | > 100 µM (inactive) | > 100 µM (inactive) | > 100 µM (inactive) | > 100 µM (inactive) | > 100 µM (inactive) | > 100 µM (inactive) | > 100 µM (inactive) | > 100 µM (inactive) |
| CCNC(=S)N/N=C(\C)c1cccc(C)n1 | > 100 µM (inactive) | 42.8 µM (inactive) | 15.4 µM (inactive) | 0.351 µM (active) | 2.4 µM (inactive) | 3.71 µM (inactive) | 11 µM (inactive) | 7.18 µM | 13.1 µM (inactive) | 3.44 µM (inactive) | 1.78 µM (inactive) | > 100 µM (inactive) | 0.299 µM (active) | 4.52 µM (inactive) | 11.8 µM (inactive) | 20.5 µM (inactive) | 2.04 µM (inactive) | 7.43 µM (inactive) | 0.631 µM (active) | 23 µM (inactive) |
| CC(C)(C)C1CCC2(CC1)CCN(CCCN1CCOCC1)CC2 | > 100 µM (inactive) | 20 µM (inactive) | 8.91 µM (inactive) | 25.4 µM (inactive) | > 83 µM (inactive) | 48.3 µM (inactive) | > 95.7 µM (inactive) | 22.3 µM | > 100 µM (inactive) | > 81.1 µM (inactive) | 8.51 µM (inactive) | 27.1 µM (inactive) | > 100 µM (inactive) | 8.05 µM (inactive) | > 86.3 µM (inactive) | 28.2 µM (inactive) | > 96.4 µM (inactive) | > 35.2 µM (inactive) | 24.5 µM (inactive) | 52.1 µM (inactive) |
| COc1cc(-c2oc(/C=N/c3ccccc3)c([N+](=O)[O-])c2-c2ccc(O)c(OC)c2)ccc1O | 18 µM (inactive) | 32.9 µM (inactive) | 17.9 µM (inactive) | 6.31 µM (inactive) | 19.7 µM (inactive) | 15.1 µM (inactive) | 26.9 µM (inactive) | 14.4 µM | > 41.8 µM (inactive) | 17.3 µM (inactive) | 36.1 µM (inactive) | 2.86 µM (inactive) | 35.4 µM (inactive) | 23.7 µM (inactive) | 27 µM (inactive) | 23.6 µM (inactive) | 25.8 µM (inactive) | 23.4 µM (inactive) | 12.2 µM (inactive) | 16.3 µM (inactive) |
| O=C(O)CCc1nc2ccccc2[nH]1 [PROCODAZOLE] | > 100 µM (inactive) | > 100 µM (inactive) | > 100 µM (inactive) | > 100 µM (inactive) | > 100 µM (inactive) | > 100 µM (inactive) | > 100 µM (inactive) | > 100 µM | 0.237 µM (active) | > 100 µM (inactive) | > 100 µM (inactive) | > 100 µM (inactive) | > 100 µM (inactive) | > 100 µM (inactive) | > 100 µM (inactive) | > 100 µM (inactive) | > 100 µM (inactive) | > 100 µM (inactive) | > 100 µM (inactive) | > 100 µM (inactive) |
